# From paper PMC11120408 (Foods, 2024)
# Tests used:
# Assay type in all cases: biochemical, bovine
# [1] = target: T1, BSA–fructose (Fru) system (Bos taurus, UniProt P02769); test: Anti-glycation: glycation products in BSA–Fru system; conditions: 0.200 mg mL^−1; end stage
# Procedure: Considering that Monascus pigments (MPs) are usually applied in the form of a mixture, the extract of Monascus-fermented rice (a high content of six known Monascus pigments, Figure S2) was selected to evaluate the anti-glycation capacity of MPs in a reaction in vitro using BSA as a model protein glycation by Fru. Briefly, BSA and Fru were dissolved in PBS solution of pH 7.4, and their final concentrations were 10.0 mg mL^−1 and 0.5 M, respectively. Then, a series of MPs were added into the above system with final concentrations of 0.005, 0.025, 0.050, 0.100, 0.150, and 0.200 mg mL^−1. After filtered through a sterile 0.22 μm membrane, the reaction mixture was incubated at 323 K for 24 h. The glycosylation products, namely fructosamine (in the early stage), α-dicarbonyl compounds (in the middle stage), and fluorescent AGEs (in the end stage), were detected according to our previous report. Here, AG was a positive control.
# [2] = target: T1, BSA–fructose (Fru) system; test: Structural analysis of glycated BSA (CD, ThT cross-β structure)
# Procedure: The changes in the secondary structures of the proteins were determined using the CD spectroscopy method on a New MOS-450 spectropolarimeter (Biologic, Seyssinet-Pariset, France). The spectra were collected over the far-UV range of 200–260 nm using a quartz cell (with an inner diameter of 1 mm) under an atmosphere of nitrogen at room temperature. Each spectrum was the average of at least three consecutive scans at a scan speed of 100 nm min^−1 with a bandwidth of 1 nm, and it was corrected for the buffer signal. The proportion of different secondary structures was calculated using the online CONTIN program (http://dichroweb.cryst.bbk.ac.uk/html/home.shtml, accessed on 4 April 2023).
# The secondary structure contents of BSA before and after glycosylation were determined using CD measurement referring to the experimental procedure in Section 2.3.2.
# As a popular fluorescent probe for protein aggregation, thioflavin T (ThT) was used for the detection of the amyloid β-structure of glycated BSA [29, 30]. The samples were treated with ThT (a final concentration of 0.016 mg mL^−1) at room temperature for 1 h in the dark. The ThT fluorescence intensity (excitation: 435 nm; emission: 485 nm) of the sample was recorded on a spectrofluorometer.
# [3] = target: T1, BSA–fructose (Fru) system; test: Surface hydrophobicity of glycated BSA (BPB, ANS)
# [4] = target: T1, BSA–fructose (Fru) system; test: Total carbonyl and thiol group content of glycated BSA; conditions: 0.200 mg mL^−1
# Procedure: A reported method was adopted and a slight modification was made to determine the protein carbonyl group content (PCO). Briefly, 100 μL of native BSA solution or sample solution acquired in Section 2.4.1 was incubated with DNPH solution (400 μL, 10 mM, dissolved in 2.0 M HCl) for 1 h at room temperature, with vortexing every 10 min. The sample solution without DNPH was regarded as the blank group. Then, 1000 μL of trichloroacetic acid (TCA) solution (20% (w/v)) was added, and the resulting mixture was kept at 277 K for 10 min, followed by centrifugation (10,000 rpm, 10 min, 277 K). The residue was extracted with ethanol/ethyl acetate (1:1, v/v) three times, and subsequently suspended and mixed thoroughly in 1000 μL of guanidine hydrochloride (6.0 M, pH 6.6), followed by incubating at 310 K for 15 min. The UV absorbance was recorded at 370 nm on an Infinite® M200 PRO plate reader (Tecan, Männedorf, Switzerland). The total protein carbonyl group content was calculated using the following equation:(4) PCO(nmol/mg protein)=Asample−AblankVreaction/ε1dVsampleCpro×1000 where Asample and Ablank are the absorbances of a tested sample with or without DNPH, respectively. ε1 represents the absorption coefficient of 22,000 M^−1cm^−1, and d is the cuvette length (0.5 cm). […]
# The content of the free SH group was assessed using Ellman’s method with slight changes. […]
# T1 sequence (P02769 25-607): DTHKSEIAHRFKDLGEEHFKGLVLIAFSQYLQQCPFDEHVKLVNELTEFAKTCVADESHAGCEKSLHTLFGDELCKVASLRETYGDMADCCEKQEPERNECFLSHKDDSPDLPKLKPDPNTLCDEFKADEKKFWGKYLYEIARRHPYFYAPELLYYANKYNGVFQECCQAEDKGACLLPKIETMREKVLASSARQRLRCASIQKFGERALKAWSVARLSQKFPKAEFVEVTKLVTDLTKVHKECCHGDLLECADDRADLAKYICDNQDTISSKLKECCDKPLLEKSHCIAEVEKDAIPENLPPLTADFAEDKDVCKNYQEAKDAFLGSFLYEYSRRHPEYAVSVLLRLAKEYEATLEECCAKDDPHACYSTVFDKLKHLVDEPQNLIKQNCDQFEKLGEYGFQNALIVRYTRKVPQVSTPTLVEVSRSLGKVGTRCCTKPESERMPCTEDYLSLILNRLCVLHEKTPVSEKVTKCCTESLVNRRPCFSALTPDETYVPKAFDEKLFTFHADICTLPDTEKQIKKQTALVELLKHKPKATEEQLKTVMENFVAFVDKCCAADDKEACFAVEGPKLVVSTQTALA
smiles,measurement,setting,value
"N=C(N)NN [AG, aminoguanidine]",inhibition rate of fluorescent AGE formation,[1],75.7%
same,inhibition rate against generation of cross-β structure (ThT),[2]; 0.005 mg mL^−1,27.6%
same,inhibition rate against generation of cross-β structure (ThT),[2]; 0.200 mg mL^−1,41.4%
same,α-helical structure content of treated glycated BSA (CD),"[2]; glycated BSA 47.8%, native BSA 67.6%",58.3%
same,change of ANS fluorescence intensity of glycated BSA,[3]; ANS binding,increased slightly
same,change of BPB content bound to glycated BSA (surface hydrophobicity),[3]; BPB binding,increased
same,free SH group content of glycated BSA after treatment,"[4]; glycated BSA 2.3, native BSA 3.6",2.7 µmol/g
same,carbonyl group content of glycated BSA after treatment,"[4]; glycated BSA 35.6, native BSA 2.5",15.7 nmol/mg
